Results on 13 compounds are retold here after patent US5250524A, “Bile acid derivatives, process for their preparation and use of these compounds as pharmaceuticals” (Hoechst Aktiengesellschaft, priority 1990, dated 1993).

pIC50: −log10 of the molar value. Read-outs that look alike come from different tables or passages of the source.

The experiment concerns the target T1, Na^+ -dependent bile acid transport system (Oryctolagus cuniculus, UniProt Q28727).
T1 construct: Preparation of brush-border membrane vesicles from the ileum of rabbits; from tissue; host or cells: brush-border membrane vesicles from the terminal small intestine (ileum) of male New Zealand rabbits
T1 sequence (Q28727 1-347): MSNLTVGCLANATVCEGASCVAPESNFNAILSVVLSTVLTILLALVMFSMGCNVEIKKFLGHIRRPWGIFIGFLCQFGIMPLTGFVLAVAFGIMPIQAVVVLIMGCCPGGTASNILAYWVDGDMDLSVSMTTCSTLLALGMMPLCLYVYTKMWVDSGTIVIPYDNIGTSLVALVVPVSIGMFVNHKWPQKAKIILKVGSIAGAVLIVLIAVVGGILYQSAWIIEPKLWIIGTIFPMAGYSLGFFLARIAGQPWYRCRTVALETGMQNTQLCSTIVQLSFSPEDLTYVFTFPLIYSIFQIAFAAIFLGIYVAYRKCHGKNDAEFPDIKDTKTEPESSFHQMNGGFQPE
Briefly: Inhibition of Na^+ -dependent [^3 H]taurocholate absorption into brush-border membrane vesicles of the ileum. The following applies: taurocholate 50 μM, pH 7.4, customarily 1 min. The experiment is classed as biochemical, rabbit. The procedure: The pharmacological data include a series of -tests in which the interaction of the compounds according to the invention with the intestinal bile acid transport system was investigated in the terminal small intestine:
1. Preparation of brush-border membrane vesicles from the ileum of rabbits
The preparation of brush-border membrane vesicles from the intestinal cells of the small intestine was carried out using the so-called Mg^2+ precipitation method. Male New Zealand rabbits (2-2.5 kg body weight) were sacrificed by intravenous injection of 0.5 ml of an aqueous solution of 2.5 mg of tetracaine HCl, 100 T 61® and 25 mg of mebezonium iodide. The small intestine was removed and rinsed with ice-cold physiological saline solution. The terminal […] of the small intestine (measured in the oral-rectal direction, i.e. the terminall ileum, which contains the active Na^+ -dependent bile acid transport system) were used for preparation of the brush-border membrane vesicles. The intestines were frozen at -80° C. under nitrogen in plastic bags. The frozen intestines were thawed in a water bath at 30° C. in order to prepare the membrane vesicles. The mucosa was scraped off and suspended in 60 ml of ice-cold 12 mM trio/HCl buffer (pH 7.1)/300 mM mannitol, 5 mM EGTA/10 mg/l of phenylmethylsulfonyl fluoride/1 mg/1 of soybean trypsin inhibitor (32 U/mg)/0.5 mg/l of bovine lung trypsin inhibitor (193 U/mg)/0.5 mg/l of bacitracin. After diluting to 300 ml with ice-cold distilled water, the suspension was homogenized with ice-cooling for 3 minutes at 75% of maximum power using an Ultraturrax (18 rod, IKA Werk Staufen, Federal Republic of Germany). After addition of 3 ml of 1M MgCl2 solution (final Concentration 10 mM), the homogenate was allowed to stand at 0° C. for exactly 1 minute. As a result of addition of Mg^2+, the cell membranes aggregate and precipitate with the exception of the brush-border membranes. After centrifugation at 3,000×g (5,000 rpm, SS-34 rotor) for 15 minutes, the precipitate is discarded and the supernatant which contains the brush-border membranes is centrifuged at 26,700×g (15,000 rpm, SS-34 rotor) for 30 minutes. The supernatant was discarded, and the precipitate was rehomogenized in 60 ml of 12 mM tris/HCl buffer (pH 7.1)/60 mM mannitol, 5 mM EGTA using a Potter Elvejhem homogenizer (Braun Melsungen, 900 rpm, 10 strokes). After addition of 0.1 ml of 1M MgCl2 solution and an incubation time of 15 minutes at 0° C., the mixture was again centrifuged at 3,000×g for 15 minutes. The supernatant was then again centrifuged at […] ( 15,000 rpm, SS-34 rotor) for 30 minutes. The precipitate was taken up in 30 ml of 10 mM tris/hepes buffer (pH 7.4) /300 mM mannitol and homogeneously resuspended by 20 strokes in a Potter Elvejhem homogenizer at 1,000 rpm. After centrifugation at 48,000×g (20,000 rpm, SS-34 rotor) for 30 minutes, the precipitate was taken up in 0.5 to 2 ml of tris/hepes buffer (pH 7.4)/280 mM mannitol (final concentration 20 mg/ml) and resuspended with the aid of a tuberculin syringe using a 27 gauge needle. The vesicles were either used immediately after preparation for transport investigations or stored at -196° C. in liquid nitrogen in 4 mg portions.
2. Inhibition of Na^+ -dependent [^3 H]taurocholate absorption into brush-border membrane vesicles of the ileum
The absorption of substrates into brush-border membrane vesicles was determined by means of the so-called membrane filtration technique. 10 μl of the vesicle suspension (100 μg of protein) were pipetted on the wall of a polystyrene incubation tube (11×70 mm) as a drop which contained the incubation medium together with the corresponding ligands (90 μl). […]

[1] abbreviates: IC50, [^3 H]taurocholate absorption, rabbit ileum brush-border membrane vesicles.
The mark [2] stands for this setting: IC50 Na, Na^+ -dependent transport component (difference between absorption in Na-T-B and K-T-B).
Where [3] appears, read: Na^+ -dependent transport component (difference between absorption in Na-T-B and K-T-B), read-out: IC50 Na.
Where [4] appears, read: [^3 H]taurocholate absorption, rabbit ileum brush-border membrane vesicles, read-out: IC50.

Compound `C[C@H](CCC(=O)NCC(=O)O)[C@H]1CC[C@H]2[C@@H]3[C@H](O)C[C@@H]4C[C@@H](OCCNC(=O)CCC(=O)NCCCNC(=O)CC[C@@H](C)[C@H]5CC[C@H]6[C@@H]7[C@H](O)C[C@@H]8C[C@H](OCc9ccccc9)CC[C@]8(C)[C@H]7C[C@H](O)[C@]56C)CC[C@]4(C)[C@H]3CC[C@]12C` [191 (glycine conj.)] showed a negative-log IC50 (pIC50) under setting [1] of 4.57 and a pIC50 under setting [2] of 4.74.
As for `C[C@H](CCC(=O)NCC(=O)O)[C@H]1CC[C@H]2[C@@H]3[C@H](O)C[C@@H]4C[C@@H](OCCNC(=O)CCC(=O)NCCCNC(=O)CC[C@@H](C)[C@H]5CC[C@H]6[C@@H]7[C@H](O)C[C@@H]8C[C@H](OC(c9ccccc9)c9ccccc9)CC[C@]8(C)[C@H]7C[C@H](O)[C@]56C)CC[C@]4(C)[C@H]3C[C@H](O)[C@]12C` [Example 528], the pIC50 is, setting by setting: under setting [3], 4.80; under setting [4], 4.59.
As for `C[C@H](CCC(=O)NCCCNC(=O)CCC(=O)NCCO[C@H]1CC[C@@]2(C)[C@@H](C1)C[C@@H](O)[C@@H]1[C@@H]2C[C@H](O)[C@]2(C)[C@@H]([C@H](C)CCC(=O)NCCS(=O)(=O)O)CC[C@@H]12)[C@H]1CC[C@H]2[C@@H]3[C@H](O)C[C@@H]4C[C@H](OCc5ccccc5)CC[C@]4(C)[C@H]3C[C@H](O)[C@]12C` [172 (taurine conj.)], the negative logarithm of the IC50 (pIC50) under setting [1] was 4.49 and the pIC50 under setting [2] was 4.70.
For the compound `C[C@H](CCC(=O)NCCO[C@H]1CC[C@@]2(C)[C@@H](C1)C[C@@H](O)[C@@H]1[C@@H]2C[C@H](O)[C@]2(C)[C@@H]([C@H](C)CCC(=O)NCCS(=O)(=O)O)CC[C@@H]12)[C@H]1CC[C@H]2[C@@H]3[C@H](O)C[C@@H]4C[C@H](OCc5ccccc5)CC[C@]4(C)[C@H]3C[C@H](O)[C@]12C` [369 (taurine conj.)], the pIC50 is, setting by setting: under setting [1], 4.30; under setting [2], 4.74.
Regarding `C[C@H](CCC(=O)O)[C@H]1CC[C@H]2[C@@H]3[C@H](O)C[C@@H]4C[C@@H](OCCNC(=O)CCC(=O)NCCO[C@H]5CC[C@@]6(C)[C@@H](C5)C[C@@H](O)[C@@H]5[C@@H]6C[C@H](O)[C@]6(C)[C@@H]([C@H](C)CCC(=O)O)CC[C@@H]56)CC[C@]4(C)[C@H]3C[C@H](O)[C@]12C` [Example 532], the negative logarithm of the IC50 (pIC50) reads like this: under setting [3], 5.00; under setting [4], 4.52.
In the same order, the values of `C[C@H](CCC(=O)NCCS(=O)(=O)O)[C@H]1CC[C@H]2[C@@H]3[C@H](O)C[C@@H]4C[C@@H](OCCNC(=O)CCC(=O)NCCCNC(=O)CC[C@@H](C)[C@H]5CC[C@H]6[C@@H]7[C@H](O)C[C@@H]8C[C@H](OC(c9ccccc9)c9ccccc9)CC[C@]8(C)[C@H]7C[C@H](O)[C@]56C)CC[C@]4(C)[C@H]3C[C@H](O)[C@]12C` [Example 527] are 5.00 and 4.70.
On to `C[C@H](CCC(=O)O)[C@H]1CC[C@H]2[C@@H]3[C@H](O)C[C@@H]4C[C@@H](OCCNC(=O)CCC(=O)NCCCNC(=O)CC[C@@H](C)[C@H]5CC[C@H]6[C@@H]7[C@H](O)C[C@@H]8C[C@H](OC(c9ccccc9)c9ccccc9)CC[C@]8(C)[C@H]7C[C@H](O)[C@]56C)CC[C@]4(C)[C@H]3C[C@H](O)[C@]12C` [Example 170], for which the pIC50 by setting is: under setting [3], 4.85; under setting [4], 4.60.
On the same counts, the results for `COC(=O)CC[C@@H](C)[C@H]1CC[C@H]2[C@@H]3[C@H](O)C[C@@H]4C[C@@H](OCCNC(=O)CCC(=O)NCCO[C@H]5CC[C@@]6(C)[C@@H](C5)C[C@@H](O)[C@@H]5[C@@H]6C[C@H](O)[C@]6(C)[C@@H]([C@H](C)CCC(=O)OC)CC[C@@H]56)CC[C@]4(C)[C@H]3C[C@H](O)[C@]12C` [Example 531] are 4.74 and below 4.30.
Regarding `C[C@H](CCC(=O)NCCO[C@H]1CC[C@@]2(C)[C@@H](C1)C[C@@H](O)[C@@H]1[C@@H]2C[C@H](O)[C@]2(C)[C@@H]([C@H](C)CCC(=O)O)CC[C@@H]12)[C@H]1CC[C@H]2[C@@H]3[C@H](O)C[C@@H]4C[C@H](OCc5ccccc5)CC[C@]4(C)[C@H]3C[C@H](O)[C@]12C` [Example 369], the pIC50 runs as follows: under setting [3], 4.70; under setting [4], 4.26.
In the same order, the values of `C[C@H](CCC(=O)O)[C@H]1CC[C@H]2[C@@H]3[C@H](O)C[C@@H]4C[C@@H](OCCNC(=O)CCC(=O)NCCCNC(=O)CC[C@@H](C)[C@H]5CC[C@H]6[C@@H]7[C@H](O)C[C@@H]8C[C@H](OCc9ccccc9)CC[C@]8(C)[C@H]7C[C@H](O)[C@]56C)CC[C@]4(C)[C@H]3CC[C@]12C` [Example 191] are 4.54 and 4.24.
The compound `C[C@H](CCC(=O)NCCS(=O)(=O)O)[C@H]1CC[C@H]2[C@@H]3[C@H](O)C[C@@H]4C[C@@H](OCCNC(=O)CCC(=O)NCCCNC(=O)CC[C@@H](C)[C@H]5CC[C@H]6[C@@H]7[C@H](O)C[C@@H]8C[C@H](OCc9ccccc9)CC[C@]8(C)[C@H]7C[C@H](O)[C@]56C)CC[C@]4(C)[C@H]3CC[C@]12C` [191 (taurine conj.)] showed a pIC50 under setting [1] of 4.74 and a pIC50 under setting [2] of 4.85.
In turn, `C[C@H](CCC(=O)NCCO[C@H]1CC[C@@]2(C)[C@@H](C1)C[C@@H](O)[C@@H]1[C@@H]2C[C@H](O)[C@]2(C)[C@@H]([C@H](C)CCC(=O)NCC(=O)O)CC[C@@H]12)[C@H]1CC[C@H]2[C@@H]3[C@H](O)C[C@@H]4C[C@H](O)CC[C@]4(C)[C@H]3C[C@H](O)[C@]12C` [368 (glycine conj.)] gave a pIC50 under setting [1] of 4.32 and a negative logarithm of the IC50 (pIC50) under setting [2] of 4.80.
Turning to `C[C@H](CCC(=O)NCCO[C@H]1CC[C@@]2(C)[C@@H](C1)C[C@@H](O)[C@@H]1[C@@H]2C[C@H](O)[C@]2(C)[C@@H]([C@H](C)CCC(=O)O)CC[C@@H]12)[C@H]1CC[C@H]2[C@@H]3[C@H](O)C[C@@H]4C[C@H](O)CC[C@]4(C)[C@H]3C[C@H](O)[C@]12C` [Example 368], the pIC50 under setting [3] was 4.74 and the pIC50 under setting [4] is 4.35.

What is called pIC50 is the IC50 on a negative log10 scale, so that one unit is a factor of ten.
